Test: xn = mol fraction of the nth substance listed
Settings: Liquid, Vibrating tube method

CCCCCCCCCC [decane] + CCCCCC
Settings | mass density [kg/m3]
343.06 K, 22000 kPa, x2 = 0.7524 | 665.93
343.06 K, 23000 kPa, x2 = 0.2185 | 702.17
343.06 K, 23000 kPa, x2 = 0.7524 | 666.87
343.06 K, 24000 kPa, x2 = 0.2185 | 702.97
343.06 K, 24000 kPa, x2 = 0.7524 | 667.79
343.06 K, 25000 kPa, x2 = 0.2185 | 703.79
343.06 K, 25000 kPa, x2 = 0.7524 | 668.69
343.08 K, 1000 kPa, x2 = 0.4968 | 663.07
343.08 K, 2000 kPa, x2 = 0.4968 | 664.35
343.08 K, 3000 kPa, x2 = 0.4968 | 665.55
343.08 K, 4000 kPa, x2 = 0.4968 | 666.8
343.08 K, 5000 kPa, x2 = 0.4968 | 667.97
343.08 K, 6000 kPa, x2 = 0.4968 | 669.14
343.08 K, 7000 kPa, x2 = 0.4968 | 670.28
343.08 K, 8000 kPa, x2 = 0.4968 | 671.4
343.08 K, 9000 kPa, x2 = 0.4968 | 672.48
343.08 K, 10000 kPa, x2 = 0.4968 | 673.55
343.08 K, 11000 kPa, x2 = 0.4968 | 674.64
343.08 K, 12000 kPa, x2 = 0.4968 | 675.64
343.08 K, 13000 kPa, x2 = 0.4968 | 676.63
343.08 K, 14000 kPa, x2 = 0.4968 | 677.63
343.08 K, 15000 kPa, x2 = 0.4968 | 678.63
343.08 K, 16000 kPa, x2 = 0.4968 | 679.61
343.08 K, 17000 kPa, x2 = 0.4968 | 680.59
343.08 K, 18000 kPa, x2 = 0.4968 | 681.52
343.08 K, 19000 kPa, x2 = 0.4968 | 682.46
343.08 K, 20000 kPa, x2 = 0.4968 | 683.4
343.08 K, 21000 kPa, x2 = 0.4968 | 684.32
343.08 K, 22000 kPa, x2 = 0.4968 | 685.22
343.08 K, 23000 kPa, x2 = 0.4968 | 686.1
343.08 K, 24000 kPa, x2 = 0.4968 | 686.98
343.08 K, 25000 kPa, x2 = 0.4968 | 687.83
352.75 K, 1000 kPa, x2 = 0.8991 | 617.37
352.75 K, 2000 kPa, x2 = 0.8991 | 618.91
352.75 K, 3000 kPa, x2 = 0.8991 | 620.43
352.75 K, 4000 kPa, x2 = 0.8991 | 621.91
352.75 K, 5000 kPa, x2 = 0.8991 | 623.4
352.75 K, 6000 kPa, x2 = 0.8991 | 624.85
352.75 K, 7000 kPa, x2 = 0.8991 | 626.29
352.75 K, 8000 kPa, x2 = 0.8991 | 627.7
352.75 K, 9000 kPa, x2 = 0.8991 | 629.09
352.75 K, 10000 kPa, x2 = 0.8991 | 630.46
352.75 K, 11000 kPa, x2 = 0.8991 | 631.8
352.75 K, 12000 kPa, x2 = 0.8991 | 633.12
352.75 K, 13000 kPa, x2 = 0.8991 | 634.41
352.75 K, 14000 kPa, x2 = 0.8991 | 635.69
352.75 K, 15000 kPa, x2 = 0.8991 | 636.93
352.75 K, 16000 kPa, x2 = 0.8991 | 638.16
352.75 K, 17000 kPa, x2 = 0.8991 | 639.35
352.75 K, 18000 kPa, x2 = 0.8991 | 640.52
352.75 K, 19000 kPa, x2 = 0.8991 | 641.66
352.75 K, 20000 kPa, x2 = 0.8991 | 642.78
352.75 K, 21000 kPa, x2 = 0.8991 | 643.87
352.75 K, 22000 kPa, x2 = 0.8991 | 644.93
352.75 K, 23000 kPa, x2 = 0.8991 | 645.98
352.75 K, 24000 kPa, x2 = 0.8991 | 646.99
352.75 K, 25000 kPa, x2 = 0.8991 | 647.98
352.99 K, 1000 kPa, x2 = 0.0456 | 682.21
352.99 K, 1000 kPa, x2 = 0.7524 | 632.44
352.99 K, 2000 kPa, x2 = 0.0456 | 683.34
352.99 K, 2000 kPa, x2 = 0.7524 | 633.97
352.99 K, 3000 kPa, x2 = 0.0456 | 684.46
352.99 K, 3000 kPa, x2 = 0.7524 | 635.47
352.99 K, 4000 kPa, x2 = 0.0456 | 685.57
352.99 K, 4000 kPa, x2 = 0.7524 | 636.89
352.99 K, 5000 kPa, x2 = 0.0456 | 686.64
352.99 K, 5000 kPa, x2 = 0.7524 | 638.37
352.99 K, 6000 kPa, x2 = 0.0456 | 687.71
352.99 K, 6000 kPa, x2 = 0.7524 | 639.77
352.99 K, 7000 kPa, x2 = 0.0456 | 688.77
352.99 K, 7000 kPa, x2 = 0.7524 | 641.14
352.99 K, 8000 kPa, x2 = 0.0456 | 689.81
352.99 K, 8000 kPa, x2 = 0.7524 | 642.48
352.99 K, 9000 kPa, x2 = 0.0456 | 690.83
352.99 K, 9000 kPa, x2 = 0.7524 | 643.77
352.99 K, 10000 kPa, x2 = 0.0456 | 691.84
352.99 K, 10000 kPa, x2 = 0.7524 | 645.03
352.99 K, 11000 kPa, x2 = 0.0456 | 692.84
352.99 K, 11000 kPa, x2 = 0.7524 | 646.28
352.99 K, 12000 kPa, x2 = 0.0456 | 693.82
352.99 K, 12000 kPa, x2 = 0.7524 | 647.51
352.99 K, 13000 kPa, x2 = 0.0456 | 694.79
352.99 K, 13000 kPa, x2 = 0.7524 | 648.71
352.99 K, 14000 kPa, x2 = 0.0456 | 695.75
352.99 K, 14000 kPa, x2 = 0.7524 | 649.88
352.99 K, 15000 kPa, x2 = 0.0456 | 696.69
352.99 K, 15000 kPa, x2 = 0.7524 | 651.03
352.99 K, 16000 kPa, x2 = 0.0456 | 697.62
352.99 K, 16000 kPa, x2 = 0.7524 | 652.16
352.99 K, 17000 kPa, x2 = 0.0456 | 698.54
352.99 K, 17000 kPa, x2 = 0.7524 | 653.28
352.99 K, 18000 kPa, x2 = 0.0456 | 699.44
352.99 K, 18000 kPa, x2 = 0.7524 | 654.35
352.99 K, 19000 kPa, x2 = 0.0456 | 700.33

Reference: the NIST ThermoML archive (doi:10.1021/je200721d)
